Measurements from patent publication US11319601B2, “Cell based assay” (Medical Diagnostic Laboratories, L.L.C., priority 2017, dated 2022).

Tests used:
HER2 receptor = HER2 receptor (Homo sapiens, UniProt P04626); experiment: Luciferase reporters (ERK-Luc, FRE-Luc, JNK-Luc, NFkB-Luc) in HEK293 cells overexpressing HER2, treated with lapatinib; assay type: cell-based; details: 10 nM, 4 hours
Experimental: In order to identify a reporter to measure the activity of HER2 receptor, the HEK293 cells were transfected with different reporter constructs, including ERK-Luc, FRE-Luc, JNK-Luc and NFkB-Luc, in the absence or presence of HER2 expression plasmid. After 24 hours, the luciferase reporter activity of the transfected cells was measured by Nano-Glo® Luciferase Assay (Promega). […] The luciferase reporter activity of the transfected cells was measured by Nano-Glo® Luciferase Assay (Promega). […] For cell transfection experiments, HEK293 cells (ATCC) were plated at density of 4-8×10^4 cells per well (96-well plates) or 1-2×10^4 cells per well (384-well plates) in phenol red-free MEM containing 10% FBS and antibiotics. Either DNA plasmid or linear DNA was mixed with TransIT-293 transfection reagent (Mirus Bio LLC). Once cells were trypsinized, DNA transfection mix was added. The cells were then incubated for 24 or 48 hours.

L755S HER2 receptor = molecular target: T1, L755S HER2 receptor (Homo sapiens, UniProt P04626, L755S); experiment: HER2 reporter cells transfected with linear expression cassette of L755S HER2, all-in-one method; assay type: cell-based; details: 24 hours post-transfection
T1 construct: expressed in transfected cells; host or cells: HER2 reporter cells (clone #1)
Text: L755S corresponds to a missense mutation of HER2, which changes leucine (L) into serine (S) at amino acid position of 755. In order to functionally characterize this mutation, PCR-mediated overlapping extension was employed to construct linear expression cassette of HER2 carrying this mutation. The linear expression cassette of mutant HER2 DNA was first transfected into the reporter cells followed by treatment with NRG1 and its inhibitors using the “all-in-one” method. The luciferase reporter activity was measured 24 hours post-transfection.

P780ins HER2 receptor = molecular target: T2, P780ins HER2 receptor (Homo sapiens, UniProt P04626, INS780GSP); experiment: HER2 reporter cells transfected with linear expression cassette of P780ins HER2, all-in-one method; assay type: cell-based
T2 construct: expressed in transfected cells; host or cells: HER2 reporter cells (clone #1)
Text: P780ins corresponds to an insertion mutation of HER2, which adds 3 amino acids (GSP) after the amino acid position of […] (Proline—P). In order to functionally characterize this mutation, PCR-mediated overlapping extension was employed to construct linear expression cassette of HER2 carrying this insertion. The linear expression cassette of mutant HER2 DNA was first transfected into the reporter cells followed by treatment with NRG1 and its inhibitors using the “all-in-one” method. The luciferase reporter activity was measured 24 hours post-transfection.

T862A HER2 receptor = molecular target: T3, T862A HER2 receptor (Homo sapiens, UniProt P04626, T862A); experiment: HER2 reporter cells transfected with linear expression cassette of T862A HER2, all-in-one method; assay type: cell-based; details: 24 hours post-transfection
T3 construct: expressed in transfected cells; host or cells: HER2 reporter cells (clone #1)
Text: T862A corresponds to a missense mutation of HER2, which changes Threonine (T) into Alanine (A) at amino acid position of 862. In order to functionally characterize this mutation, PCR-mediated overlapping extension was employed to construct a linear expression cassette of HER2 carrying this mutation. The linear expression cassette of mutant HER2 DNA was transfected into the reporter cells followed by treatment with NRG1 and its inhibitors using the “all-in-one” method. The luciferase reporter activity was measured 24 hours post-transfection.

[1] = system: HER1, HER2 and HER3 receptors; experiment: ERK-Luc, JNK-Luc and NFkB-Luc reporters in HEK293 cells co-transfected with HER1, HER2 and HER3, treated with ligand; assay type: cell-based, human; details: ligand 6 hours; HER1, HER2, HER3 co-transfected HEK293
Experimental: In order to identify reporters to measure the activity of HER2 receptor, expression plasmids of HER1, HER2 and HER3 were co-transfected with different reporter constructs, including ERK-Luc, JNK-Luc and NFkB-Luc, into the HEK293 cells. After 24 hours, the transfected cells were treated with either EGF (HER1 receptor ligand) or NRG1 (HER3 receptor ligand) for 6 hours. The luciferase reporter activity of the transfected cells was measured by Nano-Glo® Luciferase Assay (Promega). […] JNK-Luc reporter was activated when the transfected cells were treated with either HER1 or HER3 ligand (FIG. 11B).
(§1) For cell transfection experiments, HEK293 cells (ATCC) were plated at density of 4-8×10^4 cells per well (96-well plates) or 1-2×10^4 cells per well (384-well plates) in phenol red-free MEM containing 10% FBS and antibiotics. Either DNA plasmid or linear DNA was mixed with TransIT-293 transfection reagent (Mirus Bio LLC). Once cells were trypsinized, DNA transfection mix was added. The cells were then incubated for 24 or 48 hours.

HER1 and HER2 receptors = experiment: JNK-Luc reporter in HEK293 cells with HER1 and wild-type or kinase-dead HER2, treated with EGF; assay type: cell-based, human; details: HER1 plus wild-type or kinase-dead HER2
Experimental: In order to characterize the specificity of activation of JNK-Luc reporter upon treatment of HER1 ligand, JNK-Luc was co-transfected with expression plasmids of HER1 and wild-type or kinase-dead HER2 receptors into the HEK293 cells. After 24 hours, the transfected cells were treated with EGF (HER1 receptor ligand). The luciferase reporter activity of the transfected cells was measured by Nano-Glo® Luciferase Assay (Promega). In FIG. 12, no difference was found between the cells transfected with wild-type HER2 and kinase-dead HER2.
as §1

| inhibition of increased reporter activities upon HER2 expression (HER2 receptor) | reporter activity after HER2 inhibitor in the presence of NRG1 (L755S HER2 receptor) | activity retained compared to the cells without the treatment of inhibitor (P780ins HER2 receptor; high concentration of lapatinib, in the presence of NRG1) | reporter activity after HER2 inhibitor in the presence of NRG1 (T862A HER2 receptor) | Compound | reporter activity after HER2 inhibitor in the presence of NRG1 (P780ins HER2 receptor; all-in-one method, 24 hours post-transfection) | JNK-Luc reporter activation [1] | NFkB-Luc reporter activation [1] | JNK-Luc reporter activation (HER1 and HER2 receptors) |
| --- | --- | --- | --- | --- | --- | --- | --- | --- |
| did not inhibit | did not respond | more than 75% | did not respond | CS(=O)(=O)CCNCc1ccc(-c2ccc3ncnc(Nc4ccc(OCc5cccc(F)c5)c(Cl)c4)c3c2)o1 [Lapatinib] | very minor reduction of reporter activity | – | – | – |
| – | – | – | – | EGF: HER1 receptor ligand (NSDSECPLSHDGYCLHDGVCMYIEALDKYACNCVVGYIGERCQYRDLKWWELR) | – | activated | no activation | effectively activated |
